Measurements from US20230003720A1 (priority 2016, published 2023).

Experiments:
mOR178-1 = format: cell-based, mouse
OR2W1 = target: T1, OR2W1 (Homo sapiens, UniProt Q9Y3N9); format: cell-based
T1 construct: expressed in transfected cells
T1 sequence (Q9Y3N9 1-320): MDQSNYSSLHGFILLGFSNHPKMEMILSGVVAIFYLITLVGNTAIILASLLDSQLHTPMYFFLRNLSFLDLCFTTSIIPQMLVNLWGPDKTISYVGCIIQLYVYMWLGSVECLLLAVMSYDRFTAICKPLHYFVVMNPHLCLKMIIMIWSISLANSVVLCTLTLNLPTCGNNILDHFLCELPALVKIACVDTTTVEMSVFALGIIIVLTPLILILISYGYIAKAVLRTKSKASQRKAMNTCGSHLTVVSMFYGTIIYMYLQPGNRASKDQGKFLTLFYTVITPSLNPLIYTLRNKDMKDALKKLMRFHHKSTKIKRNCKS

mOR18-2 = target: T2, mOR18-2 (Mus musculus, UniProt Q8VBV9); format: cell-based
T2 construct: expressed in transfected cells
T2 sequence (Q8VBV9 1-320): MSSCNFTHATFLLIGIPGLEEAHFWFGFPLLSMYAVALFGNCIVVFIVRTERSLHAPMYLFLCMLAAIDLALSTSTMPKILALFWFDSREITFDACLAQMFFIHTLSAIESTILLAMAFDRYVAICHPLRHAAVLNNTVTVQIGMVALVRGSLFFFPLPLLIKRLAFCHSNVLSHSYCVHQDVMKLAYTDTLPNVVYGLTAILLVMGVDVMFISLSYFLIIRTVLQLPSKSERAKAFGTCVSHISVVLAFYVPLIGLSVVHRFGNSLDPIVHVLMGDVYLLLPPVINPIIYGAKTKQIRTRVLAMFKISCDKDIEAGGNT

mOR18-1 = format: cell-based, Mus musculus

Measured: receptor response as measured levels of luminescence

CCN(CC)C(=O)[C@@H]1C=C2c3cccc4[nH]cc(c34)C[C@H]2N(C)C1 [LSD]
responded: mOR178-1 | OR2W1 | mOR18-2 | mOR18-1

c1ccc(C2(N3CCCCC3)CCCCC2)cc1 [PCP]
responded: mOR178-1 | OR2W1 | mOR18-2 | mOR18-1

CC(=O)Oc1ccc2c3c1O[C@H]1[C@@H](OC(C)=O)C=C[C@H]4[C@@H](C2)N(C)CC[C@@]341 [heroine]
responded: mOR178-1 | OR2W1 | mOR18-2 | mOR18-1
